Laboratory results published in patent US12479830B2, “Homopiperazinyl and homopiperidinyl quinazolin-4(3H)-one derivatives having multimodal activity against pain” (ESTEVE PHARMACEUTICALS, S.A., priority 2019, dated 2025).
pKi: −log10 of the molar value.

Experiments:
[1] = biological target: Human α2δ-1 subunit of Cav2.2 calcium channel (Homo sapiens, UniProt P54289); test: Human α2δ-1 subunit of Cav2.2 calcium channel assay ([3H]-gabapentin binding); conditions: binding to the α2δ-1 subunit of voltage-gated calcium channels, expressed as Ki class; + also covers inhibition between 1% and 50%
Method in brief: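 Affinity (Ki, five concentrations) or % inhibition at 1 or 10 μM, from displacement of 15 nM [3H]-gabapentin on human α2δ-1 membranes. Incubation 60 min, 27° C., Hepes-KOH 10 mM pH 7.4; 10 μM pregabalin defined non-specific binding; bound radioactivity counted after GF/C filtration.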

[2] = biological target: T1, Human σ1 receptor (Homo sapiens, UniProt Q99720); test: Human σ1 receptor radioligand assay ([3H](+)-pentazocine binding); conditions: binding to the σ1 receptor, expressed as Ki class; + also covers inhibition between 1% and 50%
T1 construct: expressed in transfected cells; host or cells: HEK-293
Method in brief: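 Ki was derived from five test concentrations, or % inhibition was measured at a single 1 or 10 μM dose, against 5 nM [3H](+)-pentazocine. Incubation was 120 min at 37° C in 50 mM Tris-HCl pH 8 with 7 μg HEK-293 membranes, and 10 μM haloperidol set non-specific binding. Bound radioactivity was counted after filtration.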

T1 sequence (Q99720 whole entry): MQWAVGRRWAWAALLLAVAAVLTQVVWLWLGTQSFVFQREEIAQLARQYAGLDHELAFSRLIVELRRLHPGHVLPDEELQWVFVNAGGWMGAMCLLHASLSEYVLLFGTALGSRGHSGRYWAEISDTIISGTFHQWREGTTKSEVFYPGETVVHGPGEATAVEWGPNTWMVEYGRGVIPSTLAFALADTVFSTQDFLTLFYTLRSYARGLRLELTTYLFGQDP
Chain of Human α2δ-1 subunit of Cav2.2 calcium channel (P54289 25-1103): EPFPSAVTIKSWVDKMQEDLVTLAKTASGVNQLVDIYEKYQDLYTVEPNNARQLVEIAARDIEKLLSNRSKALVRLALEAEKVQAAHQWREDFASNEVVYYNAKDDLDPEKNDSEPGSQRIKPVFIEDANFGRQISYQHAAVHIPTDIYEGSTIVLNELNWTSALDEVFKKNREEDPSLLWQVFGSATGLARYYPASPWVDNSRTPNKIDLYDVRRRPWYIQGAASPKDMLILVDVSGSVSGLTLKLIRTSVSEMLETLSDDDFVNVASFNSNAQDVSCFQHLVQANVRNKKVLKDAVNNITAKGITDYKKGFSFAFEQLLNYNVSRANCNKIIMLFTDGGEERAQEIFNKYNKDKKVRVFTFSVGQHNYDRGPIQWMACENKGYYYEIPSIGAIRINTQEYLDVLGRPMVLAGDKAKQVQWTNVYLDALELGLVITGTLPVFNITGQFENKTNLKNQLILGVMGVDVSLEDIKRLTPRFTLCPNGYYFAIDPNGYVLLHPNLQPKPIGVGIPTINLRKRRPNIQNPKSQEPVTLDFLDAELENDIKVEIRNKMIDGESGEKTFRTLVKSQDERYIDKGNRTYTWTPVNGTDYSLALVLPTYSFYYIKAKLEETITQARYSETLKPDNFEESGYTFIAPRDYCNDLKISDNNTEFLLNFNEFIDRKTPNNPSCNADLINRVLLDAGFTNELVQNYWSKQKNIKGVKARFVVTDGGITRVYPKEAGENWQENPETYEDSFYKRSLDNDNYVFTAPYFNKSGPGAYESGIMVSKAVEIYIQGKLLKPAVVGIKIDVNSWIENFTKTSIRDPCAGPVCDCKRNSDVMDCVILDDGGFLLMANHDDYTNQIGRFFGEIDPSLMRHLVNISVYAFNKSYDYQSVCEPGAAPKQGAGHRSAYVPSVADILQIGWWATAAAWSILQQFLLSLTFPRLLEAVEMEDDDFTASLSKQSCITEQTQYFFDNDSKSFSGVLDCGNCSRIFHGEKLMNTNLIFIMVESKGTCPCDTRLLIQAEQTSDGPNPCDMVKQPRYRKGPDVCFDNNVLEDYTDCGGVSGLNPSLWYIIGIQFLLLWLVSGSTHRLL

Row | SMILES | pKi [1] | pKi [2]
1 | CCC[C@H](c1nc2cc(F)c(F)cc2c(=O)n1CC)N1CCCN[C@@H](C)C1 [Example 260, 3-ethyl-6,7-difluoro-2-((R)-1-((S)-3-methyl-1,4-diazepan-1-yl)butyl)quinazolin-4(3H)-one] | > 6.30 | < 6.00
2 | CCC[C@H](c1nc2cc(F)c(F)cc2c(=O)n1CC)N1CCCN[C@H](C)C1 [Example 261, 3-ethyl-6,7-difluoro-2-((R)-1-((R)-3-methyl-1,4-diazepan-1-yl)butyl)quinazolin-4(3H)-one] | > 6.30 | < 6.00
3 | CCC[C@H](c1nc2ccc(Br)cc2c(=O)n1CC)N1CC[C@H](C)N(C)CC1 [Example 262] | > 6.30 | 6.00 to 6.30
4 | CCC[C@@H](c1nc2ccc(Br)cc2c(=O)n1CC)N1CC[C@H](C)N(C)CC1 [Example 263] | < 5.30 | < 6.00
5 | CCCC(c1nc2ccc(F)cc2c(=O)n1CC)C1CCCNCC1 (stereo not drawn) [Example 266, 2-(1-(Azepan-4-yl)butyl)-3-ethyl-6-fluoroquinazolin-4(3H)-one] | > 6.30 | < 6.00
6 | CCCC(c1nc2ccc(F)cc2c(=O)n1CC)C1CCCN(C)CC1 (stereo not drawn) [Example 267, 3-ethyl-6-fluoro-2-(1-(1-methylazepan-4-yl)butyl)quinazolin-4(3H)-one] | > 6.30 | 6.00 to 6.30
7 | CCCC(c1nc2ccc(F)cc2c(=O)n1CC)C1CCCN(CC)CC1 (stereo not drawn) [Example 268, 3-ethyl-2-(1-(1-ethylazepan-4-yl)butyl)-6-fluoroquinazolin-4(3H)-one] | 5.30 to 6.30 | > 6.30
8 | CC[C@@H]1CCn2c(nc3ccc(Br)cc3c2=O)[C@H]1N1CCCN(C)CC1 [Example 269, (6S,7R)-2-Bromo-7-ethyl-6-(4-methyl-1,4-diazepan-1-yl)-8,9-dihydro-6H-pyrido[2,1-b]quinazolin-11(7H)-one] | < 5.30 | 6.00 to 6.30
9 | CC[C@H]1CCn2c(nc3ccc(Br)cc3c2=O)[C@@H]1N1CCCN(C)CC1 [Example 270, (6R,7S)-2-bromo-7-ethyl-6-(4-methyl-1,4-diazepan-1-yl)-8,9-dihydro-6H-pyrido[2,1-b]quinazolin-11(7H)-one] | < 5.30 | 6.00 to 6.30
